According to patent US20180010188A1, “METHOD FOR DETECTING NONSENSE-MEDIATED RNA DECAY” (The Regents of the University of California, priority 2016, published 2018):
“Also recorded” adds a separate entry of the source.

Columns and labels:
[1] = test system: NMD and non-NMD isoforms of Srsf11, Ptbp2, Tra2b, Hnrnpl and Psd-95 (cellular NMD activity); assay: RT-qPCR of endogenous NMD and non-NMD isoforms to monitor cellular NMD activity; assay type: cell-based, mouse
Description: In our method, we measure the individual abundance of NMD-sensitive isoforms and that of their non-NMD counterparts via quantitative real-time PCR (qPCR). The NMD isoforms are first examined for differential expression between a treatment and a control condition. An increase in a NMD isoform may be due to NMD inhibition, transcriptional activation or a change in alternative splicing favoring the NMD isoform. These three scenarios can be distinguished by examining the expression of the non-NMD counterparts. Genuine NMD regulation, transcriptional activation and alternative splicing regulation would lead to no change, upregulation and down-regulation of the NMD-insensitive isoforms, respectively (FIG. 6A).
One technical difficulty of our method is designing RT-qPCR primers specific to the cassette exon-skipping isoform, whose entire sequence is contained in the inclusion isoform. To specifically detect an inclusion isoform, we designed a primer entirely annealing to the cassette exon (exon B in FIG. 1A). For the exclusion isoform, junction primers annealing to the exon-skipping junction appear to be the only choices. This can be either a reverse primer (FIG. 1A) with its 5′ portion matching the downstream constitutive exon (exon C) and its 3′ portion matching the upstream constitutive exon (exon A) or a forward primer (not shown) with its 5′ and 3′ portions matching the upstream and downstream exons, respectively. The challenge is herein illustrated with reverse primers but also applies to forward primers. Many exon-skipping junction primers are able to amplify the inclusion isoforms (FIGS. 7A-D). The longer the 3′ portion of the junction primer annealing to the upstream constitutive exon, the easier the primer amplifies the inclusion transcripts (FIG. 7B). Some exon-skipping junction primers with 3′ portions as short as six nucleotides, as we've observed, can still anneal to and detect the inclusion isoform at 55-60° C., albeit at a lower efficiency than its detection of the exclusion isoform. On the other hand, a longer 5′ portion and a shorter 3′ portion increase the possibility of the primer annealing to the exon B-exon C junction because of the sequence similarity around 5′ splice sites (FIGS. 7C-D). We therefore had to identify NMD-associated cassette exons containing a 3′ end unlike that of its upstream exon. We then screened multiple exon-skipping junction primers for one that amplified only the exclusion isoform and not the inclusion isoform. All primer pairs were tested and confirmed for their specificity, RT-qPCR efficiency and linear dynamic ranges (FIG. 10). Finally, two stably expressed housekeeping genes, Gapdh and Sdha, were used as internal controls for normalization by geometric averaging (Vandesompele et al., 2002. Genome Biol 3: RESEARCH0034).
Because our method can be used on its own can to infer NMD regulation with a low false positive rate, one of its applications is unbiased screening for changes in cellular NMD activity. We screened a small panel of widely used pharmacological inhibitors for their effects on NMD. The expression of both the NMD and non-NMD isoforms of Ptbp2, Srsf11, Tra2b, Hnrnpl and Psd-95 were simultaneously measured before and after drug treatment. When the levels of all of the NMD isoforms were altered by a chemical in the same direction, the expression of the NMD and non-NMD isoforms under the treatment and control conditions was then subjected to ANOVA analysis to determine differential regulation of the two isoforms. We were interested in drugs that affected the NMD isoforms across the board and more strongly than the non-NMD counterparts. With this criterion, we identified thapsigargin as having potent activity in blocking cellular NMD.
Neuro-2a (N2a) cells were maintained in N2a complete media consisting of L-glutamine-free Dulbecco's modified Eagle's medium (DMEM), 10% FBS and 1× GlutaMAX at 37° C. […]

[2] = test system: immediate early genes c-fos, c-Jun and Pip92; assay: RT-qPCR of immediate early genes; assay type: cell-based, mouse
Description: We then examined whether an increase in intracellular Ca^2+ is sufficient to inhibit NMD. We applied a wide dose range of ouabain, a cardiac glycoside used by Nickless et al., and measured the abundance of both NMD and non-NMD isoforms at various time-points. […] To further test whether increased intracellular Ca^2+ was sufficient to inhibit NMD, we treated the cells with ionomycin, a Ca^2+ ionophore, as another method of raising the cytoplasmic Ca^2+ concentration.
Neuro-2a (N2a) cells were maintained in N2a complete media consisting of L-glutamine-free Dulbecco's modified Eagle's medium (DMEM), 10% FBS and 1× GlutaMAX at 37° C. Thapsigargin (VWR, cat. no. 89161-410), ionomycin (Fisher Scientific, cat. no. AG-CN2-0416-M001) and ouabain octahydrate (Fisher Scientific, cat. no. 80055-364) were dissolved in DMSO and stored at −80° C. For the application of these chemicals, 750,000 cells were plated on 35 mm BioLite TC plates and incubated with 2 ml of N2a complete media overnight before treatment with the drugs at the indicated concentrations. […]
Trizol (Life Technologies, cat. no. 15596-018) was directly added to the cells or mouse brain tissues to extract total RNA following the Trizol Reagent standard protocol. […] RNA concentrations were measured using a Nanodrop 2000c (Thermo Fisher). […] Relative expression (fold changes) was calculated using the ΔΔCt method. […]

SMILES | NMD isoforms at high concentration ([1]; 200 or 400 μM) | changes in cellular NMD activity ([1]; wide dose range, various time-points, N2a cells) | immediate early genes c-fos and Pip92 ([2]; 200 or 400 μM, N2a cells) | levels of the NMD isoforms ([1]; 1 to 100 μM) | expression of immediately early genes c-Jun and Pip92 ([2]; ionomycin treatment)
C[C@@H]1O[C@@H](O[C@H]2C[C@@H](O)[C@]3(CO)[C@H]4[C@H](O)C[C@]5(C)[C@@H](C6=CC(=O)OC6)CC[C@]5(O)[C@@H]4CC[C@]3(O)C2)[C@H](O)[C@H](O)[C@H]1O [ouabain] | not substantially enhanced | only minimal changes; also recorded: did not unequivocally affect NMD activity | clearly stimulated; also recorded: clearly induced | – | –
C[C@H](CCC(=O)O)C[C@H](C)C[C@H](C)C(=O)/C=C(\O)[C@H](C)C[C@H](C)C/C=C/[C@@H](C)[C@@H](O)[C@@H](C)[C@@H](O)C[C@@H]1CC[C@@](C)([C@H]2CC[C@@](C)([C@@H](C)O)O2)O1 [ionomycin] | – | – | – | did not alter | increased expression
